In brackets after ≈: the same amount, converted by molar mass. Where two headings read alike, the source gives them in different places. Marks after values point to notes of the source that are not given here.
Columns and labels:
L. major promastigotes [1] = system: L. major promastigotes; parameters: method as in PMID 10865470; details: cited from earlier work
J774.A.1 macrophages = system: J774.A.1 macrophages; parameters: method as in PMID 35325685; details: cited from earlier work
human arginase I = system: human arginase I; parameters: method as in PMID 37462864; details: cited from earlier work
[2] = biological target: recombinant arginase from L. infantum (LiARG) (Leishmania infantum, UniProt A4IB49); experiment: LiARG inhibition assay (urea quantification); type: biochemical
Method: The expression and purification of recombinant arginase from L. infantum (LiARG) were previously detailed by our group. LiARG inhibition was performed by incubating different concentrations (4.7 to 100 μg/mL) of the samples in the enzymatic reaction solution: 50 mM CHES buffer (pH 9.5) and 50 mM L-arginine. The enzymatic reaction was initiated by adding LiARG (10 μg/mL) and allowed to proceed for 5 min at 37 °C before being stopped on ice. Subsequently, enzymatic activity was assessed by measuring the conversion of L-arginine to urea using a commercial kit (Labtest UREA CE kit®, Lagoa Santa, MG, Brazil). The amount of urea produced in each reaction was determined spectrophotometrically at 600 nm, following its hydrolysis into ammonia and conversion into indophenol blue. […] From that, the IC50 was determined by regression analysis.

[3] = system: Leishmania infantum promastigotes; experiment: Anti-promastigote activity (resazurin), L. infantum; type: cell-based; details: for L. infantum IC50 ± SE: promastigotes, resazurin; for IC50: Leishmania infantum
Method: (§1) Promastigote forms of Leishmania infantum (MHOM/BR/1974/PP75) and Leishmania amazonensis (IFLA/BR/1967/PH8) were cultured in complete Schneider’s Insect Medium (SIM, 10% FBS). […] Drug-free parasite cultures served as a positive control of viability. […] After 24 h of promastigote incubation, 100 μM resazurin was added, and the cells were cultured for an additional 24 h. At 48 h of the treatment, parasites were assessed fluorometrically (555 nm excitation and 585 nm emission) for viability using a microplate reader Spectra Max M2 (Molecular Devices, CA, USA). Dose–response curves were then generated, and the half-maximal inhibitory concentrations (IC50) for each treatment were determined through regression analysis.

[4] = system: Leishmania amazonensis promastigotes; experiment: Anti-promastigote activity (resazurin), L. amazonensis; type: cell-based; details: 48 h
Method: as §1

[5] = system: intracellular L. infantum amastigotes; experiment: Inhibition of intracellular amastigotes in infected RAW 264.7 macrophages; type: cell-based, Leishmania infantum; details: for number of amastigotes per 100 infected macrophages: 20 μg/mL, 48 h, vs untreated control, p < 0.05; for IC50: Leishmania infantum
Method: (§2) After adhesion, the cells were incubated for 24 h in the presence of L. infantum promastigotes at a ratio of 10 parasites per macrophage at 35 °C in a 5% CO2 atmosphere. After the interaction period, the wells were washed with PBS to remove non-internalized promastigotes, and the infected macrophages were incubated for 24 h under the same conditions. […] Untreated infected macrophages served as a positive control for amastigote viability. After 48 h of treatment, the supernatant was collected, and the coverslips were stained with Panoptic. […] The IC50 was then calculated using dose–response curve regression analysis.

[6] = system: RAW 264.7 (murine macrophages); experiment: Cytotoxicity assay (MTT), RAW 264.7; details: 48 h treatment, MTT; mean ± SE
Method: (§3) RAW 264.7 (murine macrophages) and VERO (normal African green monkey kidney epithelial cells) lines were obtained from Banco de Células do Rio de Janeiro (BCRJ, RJ, Brazil) under the codes 0212 and 0245, respectively. Both were cultured in complete DMEM medium (10% FBS, 100 U/mL penicillin, 100 µg/mL streptomycin, and 3 µg/mL Fungizone®) at 37 °C and 5% CO2 atmosphere. After reaching subconfluence, the cells were washed twice with cold phosphate saline buffer (PBS, pH 7.2), detached by trypsinization, and seeded into 96-well microplates (10^5 cells/100 μL). […] The cells were further incubated under the same conditions for another 48 h. Drug-free cells cultured in DMEM served as positive controls of viability. The concentration of the solvent (DMSO) was normalized in all wells (1%) of treatment and control. Cell viability was assessed using a colorimetric assay based on the reduction of tetrazolium salt [69].

[7] = system: VERO (normal African green monkey kidney epithelial cells); experiment: Cytotoxicity assay (MTT), VERO; type: cell-based; details: 48 h treatment, mean ± SE
Method: as §3

[8] = system: sheep red blood cells (RBC); details: for hemolytic activity (CH50) RBC: sheep RBC, 1 h at 37 °C, mean ± SE
Method: Blood samples were washed four times with cold PBS to remove plasma, and a 4% (v/v) RBC suspension was prepared in the same buffer. […] After a 1 h incubation at 37 °C, the reaction was stopped by adding 200 µL of PBS. A positive hemolysis control was performed by adding 200 µL of distilled water to untreated cells. The microplates were then centrifuged (2000 rpm/5 min), and 200 µL of the supernatants were transferred to new 96-well microplates for spectrophotometric analysis at 540 nm (SpectraMax M2, Molecular Devices, CA, USA). The percentage of hemolysis for each treatment was calculated relative to the hemolysis control (100%), and the 50% hemolytic concentration (HC50) was determined through regression analysis of the dose–response curves.

[9] = system: NO production by RAW 264.7 macrophages infected with L. infantum; experiment: NO production (Griess reaction) by L. infantum-infected macrophages; type: cell-based, murine; details: 48 h treatment, compared to untreated control
Method: as §2
The supernatant from L. infantum-infected macrophages, treated as described in Section 3.11, was collected to assess NO production using the Griess reaction. In short, 100 µL of the collected supernatants were transferred to 96-well microplates, followed by the addition of an equal volume of Griess reagent (0.5% sulfanilamide and 0.05% naphthylenediamine dihydrochloride in 5% phosphoric acid) to each well. The plates were then incubated at room temperature in the dark for 20 min. After incubation, the absorbance was measured at 570 nm.

Pgp = details: affected the uptake of rhodamine-123 and digoxin; cited from earlier work
L. major promastigotes [10] = details: 15 µM; cited from earlier work
mouse arginase = details: colorectal cancer model; cited from earlier work
L. braziliensis = details: topical 1.5 mg/day, hamsters infected with L. braziliensis; cited from earlier work
[11] = Cytotoxicity assay (MTT), RAW 264.7; details: mouse, RAW 264.7 macrophage cells
Method: as §3

intracellular amastigote = details: 20 µM, within 24 h of treatment; cited from earlier work
[12] = system: promastigotes and axenic amastigotes of L. donovani; details: 15 µM; cited from earlier work
[13] = system: L. donovani promastigotes; details: read-out: IC50 against L. donovani promastigotes; cited from earlier work

SMILES: COc1cc(/C=C/C(O)=C/C(=O)/C=C/c2ccc(O)cc2)ccc1O [compound 2, demethoxycurcumin]
- IC50 against L. major promastigotes (L. major promastigotes [1]): 14.1 ± 4.8 µg/mL (≈ 41.7 µM)

SMILES: O=C(/C=C/c1ccc(O)cc1)CC(=O)/C=C/c1ccc(O)cc1 [compound 3, bisdemethoxycurcumin]
- IC50 against L. major promastigotes (L. major promastigotes [1]): 21.5 ± 6.9 µg/mL (≈ 69.7 µM)

SMILES: CC(C)=CC(=O)C[C@H](C)c1ccc(C)cc1 [compound 4, ar-turmerone]
- CC50 J774.A.1 macrophages (J774.A.1 macrophages): 720.06 µg/mL (≈ 3330 µM)

SMILES: CC(C)C1=C[C@H]2[C@@H](CC[C@]2(C)O)[C@](C)(O)CC1 [alismoxide]
- inhibitory activity against human arginase I (human arginase I): showed inhibitory activity

SMILES: O=c1c(O)c(-c2ccc(O)c(O)c2)oc2cc(O)cc(O)c12 [Quercetin (7), Quercetin, reference compound]
- IC50 [2]: < 20.7 µM

SMILES: O.O.O.O=C([O-])C(O)C(O)C(=O)[O-].O=C([O-])C(O)C(O)C(=O)[O-].[K+].[K+].[Sb].[Sb] (stereo not drawn) [PAT, potassium antimony(III) tartrate hydrate, reference compound]
- L. infantum IC50 ± SE ([3]; 48 h): <6.25 µg/mL
- L. amazonensis IC50 ± SE ([4]; promastigotes, resazurin): 11.9 ± 3.1 ^c,d µg/mL
- number of amastigotes per 100 infected macrophages [5]: significantly reduced
- IC50 against intracellular L. infantum amastigotes ([5]; infected RAW 264.7, 48 h treatment): 18.9 ± 4.06 µg/mL
- Cytotoxicity (CC50) RAW 264.7 [6]: 30.8 ± 0.73 ^b μg/mL
- Cytotoxicity (CC50) VERO [7]: 23.9 ± 1.5 ^b μg/mL
- hemolytic potential ([8]; at the highest concentration tested (100 μg/mL)): did not show hemolytic potential
- hemolytic activity (CH50) RBC [8]: >100 µg/mL
- NO levels [9]: increased NO levels at 10 and 20 µg/mL

SMILES: CC(C)=CC(=O)C[C@H](C)C1C=CC(C)=CC1 (stereo partly drawn) [compound 5, α-turmerone]
- Pgp inhibition (Pgp): Pgp inhibitor

SMILES: COc1cc(/C=C/C(=O)CC(=O)/C=C/c2ccc(O)c(OC)c2)ccc1O [compound 1, curcumin]
- growth of L. major promastigotes (L. major promastigotes [10]): did not inhibit the growth
- IC50 ([3]; 48 h, read-out: L. infantum IC50 ± SE, promastigotes, 48 h, resazurin): 15 µg/mL
- IC50 ([3]; read-out: IC50 against L. infantum promastigotes (molar), converted from 15.5 µg/mL): ~42 µM
- L. infantum IC50 ± SE ([3]; 48 h, listed as Curcumin (1)): 15.5 ± 1.7 ^c µg/mL
- IC50 ([4]; Leishmania amazonensis, read-out: L. amazonensis IC50 ± SE): 5.5 ± 0.45 µg/mL (≈ 14.9 µM)
- number of amastigotes per 100 infected macrophages [5]: significantly reduced
- IC50 ([5]; RAW264.7, 48 h, read-out: IC50 against intracellular L. infantum amastigotes): 13.6 µg/mL
- IC50 ([5]; RAW264.7, converted from 13.6 µg/mL, read-out: IC50 against L. infantum intracellular amastigotes): ~36.9 µM
- reduction of mouse arginase activity (mouse arginase): 73%
- therapeutic response (L. braziliensis): 83%
- CC50 at 48 h [11]: 69.8 ± 2.8 µg/mL (≈ 189 µM)
- IC50 against L. major promastigotes (L. major promastigotes [1]): 7.8 ± 3.3 µg/mL (≈ 21.2 µM)
- reduction of intracellular amastigote load (intracellular amastigote): 85%
- growth of promastigotes and axenic amastigotes of L. donovani [12]: did not inhibit the growth
- IC50 [13]: 25 µM
- IC50 [2]: 47.6 µM
- hemolytic activity (CH50) RBC [8]: >200 µg/mL
- NO levels [9]: reduced NO levels at concentrations starting from 5 µg/mL
